Our source for the TGI and GI50 values is PubChem BioAssay (NCI).

Among the test systems are MDA-N; NCI-H522 lung; SF-295 CNS; M14 melanoma; OVCAR-8 ovarian; BT-549 breast; HCT-116 colon.
Holding throughout (assay): growth of human tumour cells (NCI), 48 h

Several values for one entry are separate records, joined by “and”; a condition that tells them apart may be missing. Identical values can stand only once.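 48-hour exposure; five concentrations; linearly interpolated endpoints. GI50: concentration for 50% inhibition of growth. The concentration for full growth arrest is given as TGI.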 Where only a bound is given, the exact number is not on record here.

As for `Cc1ccc(S(=O)(=O)N/N=C2/CCC(C(C)(C)C)CC2Br)cc1` (centres undefined), the TGI with MDA-N is above 100 µM; in the experiment with NCI-H522 lung it was 35.3 µM; with SF-295 CNS it was above 100 µM; in the experiment with M14 melanoma it was 35.4 µM; with OVCAR-8 ovarian, above 100 µM; in the experiment with BT-549 breast, 75.1 µM. Also, the TGI in the experiment on HCT-116 colon amounted to 51.5 µM.

As to `COCC12CCC(OC)C34C5CC6(O)C(OC)CC(OC(C)=O)(C5C6OC(=O)c5ccccc5)C(C(OC)C13)C4N(C)C2` (centres undefined), the TGI with MDA-N, in the experiment on NCI-H522 lung, in the experiment on SF-295 CNS, in the experiment with M14 melanoma, in the experiment on OVCAR-8 ovarian and in the experiment on BT-549 breast was above 100 µM in each case. In the experiment with HCT-116 colon, this molecule yielded a TGI above 100 µM.

For the molecule `O=C(C(Cl)=C(N1CCCCC1)N1CCCCC1)C(Cl)Cl`, the TGI in the experiment on MDA-N, with NCI-H522 lung, in the experiment with SF-295 CNS, in the experiment on M14 melanoma, with OVCAR-8 ovarian and in the experiment with BT-549 breast was above 100 µM in each case. Moreover, in the experiment with HCT-116 colon, the TGI was above 100 µM.

As to `COc1ccc2c(c1)c1nn(CCN3CCCCC3)c3ccc4c(=O)n(CCN(C)C)c(=O)n2c4c13`, the TGI is 0.117 µM with MDA-N; below 0.0341 µM with NCI-H522 lung; below 0.0192 µM in the experiment with SF-295 CNS; 0.109 µM with M14 melanoma; 0.3 µM with OVCAR-8 ovarian; 1.08 µM in the experiment on BT-549 breast. The molecule also gave a TGI with HCT-116 colon of 0.0213 µM.

Regarding `CCOC(=O)C(=O)CC(=O)C1=C(c2ccccc2OC)CC(c2cccs2)=CC1=O`, the TGI in the experiment on MDA-N, in the experiment on NCI-H522 lung, with SF-295 CNS, in the experiment with M14 melanoma, in the experiment on OVCAR-8 ovarian and in the experiment with BT-549 breast was above 100 µM throughout. This molecule returned a TGI in the experiment on HCT-116 colon above 100 µM.

As to `CCCc1nnc2sc(COc3cc(Cl)c(OCc4nn5c(CCC)nnc5s4)cc3Cl)nn12`, the TGI in the experiment on MDA-N, in the experiment on NCI-H522 lung, with SF-295 CNS, in the experiment on M14 melanoma, with OVCAR-8 ovarian and in the experiment on BT-549 breast was above 100 µM in each case. The TGI with HCT-116 colon was above 100 µM.

Consider `Cc1cc2oc(C)c(S(=O)(=O)NC(=O)Nc3ccc(Cl)cc3)c(=O)c2c(=O)o1`, for which the TGI in the experiment with MDA-N, with NCI-H522 lung, with SF-295 CNS, with M14 melanoma, in the experiment on OVCAR-8 ovarian and in the experiment on BT-549 breast was above 100 µM throughout. Also, in the experiment on HCT-116 colon, the TGI is above 100 µM.

With `Nc1ccc2ccc(-c3ccc[nH]3)nc2n1`, the TGI with MDA-N, in the experiment with NCI-H522 lung, with SF-295 CNS, in the experiment with M14 melanoma, in the experiment with OVCAR-8 ovarian and with BT-549 breast was above 100 µM in each case. The TGI in the experiment with HCT-116 colon is above 100 µM.

Take `N#CC[N+]1(Cc2ccccn2)CCCC1`: the TGI in the experiment with MDA-N, in the experiment with NCI-H522 lung, in the experiment with SF-295 CNS, in the experiment on M14 melanoma, in the experiment with OVCAR-8 ovarian and with BT-549 breast was above 100 µM each time. In the experiment on HCT-116 colon, this molecule came in with a TGI above 100 µM.

`O=C(N/N=C(/COc1ccccc1Cl)N=Cc1ccncc1)c1ccncc1`: the TGI in the experiment with MDA-N, with NCI-H522 lung, in the experiment on SF-295 CNS, in the experiment on M14 melanoma, in the experiment with OVCAR-8 ovarian and with BT-549 breast was above 100 µM in each case. This molecule displayed a TGI in the experiment on HCT-116 colon above 100 µM.

Turning to `Cc1c(O)c(OC2OC(CO)C(O)C(O)C2O)cc2c1C=C[C@@H]1[C@@]2(C)C(=O)C[C@]2(C)[C@@H]([C@@](C)(O)C(=O)CCC(C)(C)O)[C@H](O)C[C@@]12C` (some centres undefined), the TGI in the experiment on MDA-N was 77.5 µM; in the experiment on NCI-H522 lung it was 67.2 µM; in the experiment on SF-295 CNS, 36 µM; in the experiment with M14 melanoma it was 68.9 µM; with OVCAR-8 ovarian, above 100 µM; in the experiment on BT-549 breast, 49.5 µM. In the experiment on HCT-116 colon, this molecule showed a TGI of 37.8 µM.

Turning to `Cc1ccc(S(=O)(=O)n2ccc(-c3ccc4ccn(S(=O)(=O)c5ccc(C)cc5)c4c3)c2)cc1`, the TGI in the experiment with MDA-N, in the experiment with NCI-H522 lung, in the experiment with SF-295 CNS, in the experiment on M14 melanoma, in the experiment on OVCAR-8 ovarian and with BT-549 breast was above 100 µM throughout. Also, in the experiment on HCT-116 colon, the TGI was above 100 µM.

`CCOC(=O)C(NC(=O)CC)(Nc1ccc(F)c(Cl)c1)C(F)(F)F` (centres undefined): the TGI with MDA-N, in the experiment with NCI-H522 lung, in the experiment on SF-295 CNS, with M14 melanoma, in the experiment on OVCAR-8 ovarian and in the experiment with BT-549 breast was above 100 µM each time. Further, in the experiment with HCT-116 colon, the TGI is above 100 µM.

As to `CCCC(=O)NC(Nc1ccc(F)cc1)(C(F)(F)F)C(F)(F)F`, the TGI in the experiment on MDA-N, in the experiment on NCI-H522 lung, with SF-295 CNS, in the experiment on M14 melanoma, with OVCAR-8 ovarian and in the experiment with BT-549 breast was above 100 µM throughout. This molecule also yielded a TGI in the experiment on HCT-116 colon above 100 µM.

As for `COC12C=CC(C=C1C#N)CC2` (centres undefined) (tested in a mixture with another compound), the TGI with MDA-N, in the experiment with NCI-H522 lung, in the experiment with SF-295 CNS, in the experiment on M14 melanoma, in the experiment on OVCAR-8 ovarian and in the experiment on BT-549 breast was above 100 µM throughout. The molecule also displayed a TGI in the experiment on HCT-116 colon above 100 µM.

As to `CC(=O)NC1(C(=O)N[C@@H](Cc2ccccc2)C(=O)NC2CCCCC2)Cc2ccc3ccccc3c2-c2c(ccc3ccccc23)C1`, the GI50 is 5.39 µM and 15.2 µM in the experiment with MDA-N; 4.56 µM and 10.4 µM in the experiment with NCI-H522 lung; 2.55 µM and 0.662 µM in the experiment on SF-295 CNS; 3.32 µM and 7.79 µM with M14 melanoma; 8.67 µM and 33.2 µM with OVCAR-8 ovarian. The TGI in the experiment with MDA-N was above 100 µM; in the experiment on NCI-H522 lung it was above 100 µM; in the experiment on SF-295 CNS, above 100 µM; in the experiment on M14 melanoma, 29.6 µM and 44 µM; in the experiment on OVCAR-8 ovarian it was above 100 µM; in the experiment with BT-549 breast it was above 100 µM. The same molecule registered a TGI in the experiment with HCT-116 colon above 100 µM.

In the case of `COC1=C2C=[N+](C)C3C(=C2C=CC1OC)Cc1cc2c(cc13)OCO2` (centres undefined), the TGI in the experiment with MDA-N is 23.6 µM; in the experiment on NCI-H522 lung, 21.4 µM; in the experiment on SF-295 CNS, 29 µM; in the experiment with M14 melanoma it was 30.1 µM; with OVCAR-8 ovarian, above 100 µM; in the experiment on BT-549 breast, 28.1 µM. In the experiment with HCT-116 colon, the TGI stood at 31.5 µM.
